PubChem BioAssay (NCI)
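The compound was tested at five concentrations on cells cultured in 96-well plates, with a 48-hour exposure period. At the TGI there is no net growth.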 *1 amine or outer side, *2 acyl side, *3 side chain or, on linkers, in order; H or OH if unused. Where a SMILES comes first, the peptide text is derived from it. [ ]: non-standard residue; d: D form. The star is where a group is joined. ξ: configuration not given here. Phe(4-NO2) = N[CH](Cc1ccc([N+](=O)[O-])cc1)C(=O)O; X22 = O=C(C(CC(O)CO)O[*:1])[*:2]; Ile(3ξ) = CCC(C)[C@H](N)C(=O)O; NMeV = CN[C@H](C(=O)O)C(C)C; NMeA = CN[C@@H](C)C(=O)O; Boc = CC(C)(C)OC(=O)*; βAla = NCCC(=O)O

Assays:
Experiment in all cases: inhibition of tumour cell growth, NCI panel, 48 h
UACC-62 melanoma = tested on: UACC-62 melanoma
LOX IMVI melanoma = tested on: LOX IMVI melanoma
OVCAR-5 ovarian = tested on: OVCAR-5 ovarian
BT-549 breast = tested on: BT-549 breast
A549 NSCLC = tested on: A549 NSCLC
NCI-H226 lung = tested on: NCI-H226 lung
HCC-2998 colon = tested on: HCC-2998 colon
HOP-92 NSCLC = tested on: HOP-92 NSCLC
K-562 leukemia = tested on: K-562 leukemia
HL-60(TB) leukemia = tested on: HL-60(TB) leukemia
COLO 205 colon = tested on: COLO 205 colon
SK-MEL-28 melanoma = tested on: SK-MEL-28 melanoma
786-0 renal = tested on: 786-0 renal
MDA-MB-231 breast = tested on: MDA-MB-231 breast
T-47D breast = tested on: T-47D breast
MCF7 breast = tested on: MCF7 breast
SW-620 colon = tested on: SW-620 colon
MDA-N = tested on: MDA-N
CAKI-1 renal = tested on: CAKI-1 renal

SMILES | TGI (UACC-62 melanoma) [µM] | TGI (LOX IMVI melanoma) [µM] | TGI (OVCAR-5 ovarian) [µM] | TGI (BT-549 breast) [µM] | TGI (A549 NSCLC) [µM] | TGI (NCI-H226 lung) [µM] | TGI (HCC-2998 colon) [µM] | TGI (HOP-92 NSCLC) [µM] | TGI (K-562 leukemia) [µM] | TGI (HL-60(TB) leukemia) [µM] | TGI (COLO 205 colon) [µM] | TGI (SK-MEL-28 melanoma) [µM] | TGI (786-0 renal) [µM] | TGI (MDA-MB-231 breast) [µM] | TGI (T-47D breast) [µM] | TGI (MCF7 breast) [µM] | TGI (SW-620 colon) [µM] | TGI (MDA-N) [µM] | TGI (CAKI-1 renal) [µM]
COc1ccc(/C=C2\N=C(c3ccccc3)OC2=O)cc1OC(C)=O | > 100 | > 100 | > 100 | > 100 | > 100 | > 100 | > 100 | > 100 | > 100 | > 100 | > 100 | > 100 | > 100 | > 100 | > 100 | > 100 | > 100 |  | 
CCOC(=O)CC(=O)CSc1c(-c2ccccc2)c(=O)n(-c2ccccc2)c(=S)n1-c1ccccc1 | > 100 | > 100 | > 100 |  | > 100 | > 100 | > 100 | > 100 | > 100 | > 100 | > 100 | > 100 | > 100 | > 100 | > 100 | > 100 | > 100 | > 100 | > 100
CCOC(=O)C(NC(=O)c1ccccc1)(Nc1ccc(S(=O)(=O)Nc2cc(C)nc(C)n2)cc1)C(F)(F)F (centres undefined) | > 100 | > 100 | > 100 |  | > 100 | > 100 |  | > 100 | > 100 | > 100 | > 100 | > 100 | > 100 | > 100 | > 100 | > 100 | > 100 | > 100 | > 100
Cc1cc2cc3ccccc3cc2c(=O)[nH]1 | > 10 | > 10 | > 10 | > 10 | > 10 | > 10 |  | > 10 | > 10 | > 10 |  |  | > 10 |  |  | > 10 | > 10 | > 10 | 
Cc1c/c(=N/NC(=O)c2ccncc2)n2nc(N)sc2n1 | > 100 | > 100 | > 100 | > 100 | > 100 | > 100 | > 100 | > 100 | > 100 | > 100 | > 100 | > 100 | > 100 | > 100 |  | > 100 | > 100 |  | > 100
O=c1c2cc(S(=O)(=O)Nc3ccc(Cl)cc3Cl)ccc2ncn1NS(=O)(=O)c1cccc2ccccc12 | > 100 | 50 | > 100 | 80.6 | > 100 | > 100 | > 100 | 81.4 | > 100 | 37.5 | > 100 | > 100 | > 100 | > 100 |  | > 100 | > 100 | > 100 | 85.7
O=S(=O)(Oc1ccc2ccccc2c1-c1c(OS(=O)(=O)C(F)(F)F)ccc2ccccc12)C(F)(F)F | > 100 |  | > 100 | > 100 | > 100 | > 100 | > 100 | 34.2 | > 100 | > 100 | > 100 | > 100 | > 100 | > 100 |  | > 100 | > 100 |  | > 100
NNc1ncc2c(n1)-c1ccccc1OC2 | > 100 | > 100 | > 100 |  | > 100 | > 100 |  | > 100 | > 100 | 45.8 | > 100 | > 100 | > 100 | > 100 |  | > 100 | > 100 | > 100 | > 100
COC(=O)CCC(NC(=O)OC(C)(C)C)C(=O)NC(Cc1ccc([N+](=O)[O-])cc1)C(=O)NC(CCC(=O)OC)C(=O)OC (centres undefined) (Boc-Glu(OMe)-[Phe(4-NO2)]-Glu(OMe)-OMe; configuration not given here) | > 100 | 80.2 | > 100 |  | > 100 | > 100 | > 100 | > 100 | > 100 |  | > 100 | > 100 | > 100 | > 100 | > 100 | > 100 | > 100 | > 100 | > 100
O=C1N(CN2CCOCC2)CN(CN2CCOCC2)C(=O)N1Cc1ccc(CN2C(=O)N(CN3CCOCC3)CN(CN3CCOCC3)C2=O)cc1 | 85.4 | 76.4 | > 100 |  | > 100 | > 100 | > 100 | > 100 |  | > 100 | > 100 | > 100 | > 100 | > 100 | > 100 | > 100 | > 100 | > 100 | > 100
Cc1ccc(S(=O)(=O)N/N=C2\CC(C)OC3=C2CCCCCC3)cc1 (centres undefined) | 30.6 | 33.7 | 37.8 |  | 34.4 | 39 |  | 36.7 | > 100 | 54.6 | 37.1 | 39.3 | 32.3 | 39.4 | > 100 | 38.2 | 36.4 | > 100 | 44.6
O=c1oc2c/c(=C\c3ccccn3)c(=O)c3cccc1c3-2 | > 100 | > 100 | > 100 |  |  | > 100 | > 100 | > 100 | > 100 | > 100 | > 100 | > 100 | > 100 | > 100 | > 100 | > 100 | > 100 | > 100 | > 100
COc1ccc2nc3c([N+](=O)[O-])ccc(NCCN(C)C)c3c(NCCN(C)C)c2c1 | > 10 | 3.11 |  |  | 4.26 |  | 2.25 | > 10 | 3.42 | 3.02 | > 10 | 4.15 | 1.98 | 2.67 | > 10 | 1.84 | 3.25 | 3.13 | > 10
COc1ccc2c(c1)/C(=C\c1c(Cl)n(-c3ccccc3)c3ccccc13)C(=O)N2 | 32.6 | 92.7 | 50 | 51.3 | 51.4 | 24.5 | 22.2 | 17.6 | > 100 | 10.7 | 21.9 | > 100 | 29.2 | > 100 | 75.4 | 29.5 | > 100 |  | 56.7
CCC(C)[C@@H]1NC(=O)[C@@H]2CCCN2C(=O)C(CC(O)CO)OC(=O)CCNC(=O)[C@H](C)N(C)C(=O)[C@H](C(C)C)N(C)C1=O (some centres undefined) (cyclo([Ile(3ξ)][NMeV][NMeA][βAla][X22]P)) | > 100 | > 100 | > 100 |  | > 100 | > 100 |  | > 100 | > 100 | > 100 | > 100 | > 100 | > 100 |  |  |  | > 100 |  | > 100
Cc1nc2ccc(N)cc2[nH]c1=O | > 100 | > 100 | > 100 |  | > 100 |  | > 100 | > 100 | > 100 | > 100 | > 100 |  | > 100 |  |  |  | > 100 |  | > 100
O=C(c1ccccc1)N1CCC(Nc2nccs2)O1 (centres undefined) |  | > 10 | > 10 | > 10 | > 10 | > 10 | > 10 |  | > 10 | > 10 | > 10 | > 10 | > 10 | > 10 | > 10 | > 10 | > 10 |  | > 10
C=C(C)CC(C)(c1cc2ccccc2n1C)N1CCOCC1 (centres undefined) | > 100 | > 100 |  |  | > 100 | > 100 | > 100 | > 100 |  | > 100 | > 100 | > 100 | > 100 |  |  |  | > 100 |  | > 100
COC(=O)/C=C(\C)CC/C=C(\C)CCC(O)C(C)(C)O (centres undefined) | 77.9 | 31.5 | > 100 | 84 | > 100 | > 100 | 47.2 | > 100 | 76.7 | 42.2 | 38.3 | 38.2 | 42.5 | > 100 |  | > 100 | 53.5 | 57.8 | 48.5
CC(NC(=O)OC(C)(C)C)C(=O)NC(Cc1ccccc1)C(=O)NCC(=O)Oc1c(Cl)c(Cl)c(Cl)c(Cl)c1Cl (centres undefined) | 50.4 |  | 42.8 | 69.3 | 48.1 | 43.5 | 30.6 | 38.3 | > 100 | 53.3 | 70.9 | 71.1 | 46.4 | 36 |  | 89.6 | 47 | 90.6 | 
O=C1OCCC[C@H]2O[C@@H](COCc3ccccc3)C[C@@H]12 | > 100 |  | > 100 |  | > 100 | > 100 |  | > 100 | > 100 | > 100 | > 100 | > 100 | > 100 | > 100 | > 100 | > 100 | > 100 | > 100 | > 100
CC(=O)N(CCCCNC(=O)C(F)(F)F)CCCNC(=O)C(F)(F)F | > 100 |  | > 100 | > 100 | > 100 | > 100 | > 100 | > 100 | > 100 | > 100 | > 100 | > 100 | > 100 | > 100 | > 100 | > 100 | > 100 |  | 
N#CC1=C(N)OC(c2cccc([N+](=O)[O-])c2)C1(C#N)C#N (centres undefined) | 81.6 | 28.4 | 42.7 |  | 99.6 | 94.3 | 35.2 | 32.3 | > 100 | > 100 | 30.7 |  | 28.1 |  | 45.1 | 48.5 |  | 62.6 | 26.6
Cc1ccc(S(=O)(=O)Oc2nc3nc4ccccc4nc3nc2OS(=O)(=O)c2ccc(C)cc2)cc1 | > 100 |  | > 100 | > 100 | > 100 | > 100 | > 100 |  |  |  | > 100 | > 100 | > 100 | > 100 |  | > 100 |  |  | > 100
CCn1c(O)c(C=Nc2ccccc2)s/c1=N/Nc1nc(-c2ccc(O)c(O)c2)cs1 | > 100 | > 100 | > 100 |  | > 100 | > 100 |  | > 100 | 26.5 | 6.04 | > 100 | > 100 | > 100 | > 100 |  | > 100 | > 100 |  | > 100
CCSc1nnc(-c2ccccc2)nc1Cc1ccc(OC)cc1 | > 100 | > 100 |  |  | > 100 | > 100 | > 100 | > 100 | > 100 | > 100 | > 100 | > 100 | > 100 |  |  |  | > 100 |  | 
N=c1oc2ccccc2cc1C(=O)Nc1nccs1 | > 100 | 7.71 | > 100 | > 100 | > 100 | > 92.3 | > 100 | > 100 | > 100 | 5.92 | 45.6 | > 100 | 6.3 | > 86.3 | > 84 | > 100 | > 100 |  | > 88.1
Cc1ccc(/C=C2\NC(=S)N(CN3CCCCC3)C2=O)cc1 | > 100 | > 100 | > 100 |  | > 100 | > 100 |  | 94.4 | > 100 |  | 39.8 | > 100 | > 100 | > 100 |  | > 100 | > 100 | > 100 | 
